Results published in patent US8481005B2, “Methods to prevent cytotoxicity using N-acetyl-cysteine” (priority 2006, dated 2013).

What was measured:
[1] = tested on: HEp2 cells co-cultured with PBMCs; test: VEGF in co-cultures of HEMA/NAC treated HEp2 cells with PBMCs (multiplex cytokine array); format: cell-based, human; design: unit not given here
Method: Treatment with NAC inhibits HEMA-mediated cell death and cytotoxicity. Thus, its ability to protect the function of cells in the presence of HEMA was also evaluated further. […] The cells were trypsinized and washed 4 times with 1×PBS before they were co-cultured with PBMCs obtained from a healthy individual. A 4:1 ratio of effector to target cells (PBMC:HEp2) were used in these cultures. PBMCs were treated with and without IL-2 before they were co-cultured with HEp-2 cells. The supernatants were then removed from the co-cultures after an overnight incubation and analyzed using the FAST QUANT multiplex cytokine array kit to determine the levels of secreted cytokines.

[2] = tested on: human dental pulp stromal cells; test: VEGF by ELISA, human dental pulp stromal cells, NAC versus vitamin E (Table 5); format: cell-based; details: 4 hours
Method: Following the 4 hour incubation, cells were analyzed for apoptosis using FTIC-Annexin V and PI.
Dental pulp stromal cells were then treated as described in the preceding paragraph with supernatants removed and assayed for VEGF levels by ELISA following the 4 hour incubation.

RAW 264.7 cells = tested on: RAW 264.7 cells
Method: RAW 264.7 cells (murine macrophages) were obtained from American Type Culture Collection (ATCC) and were cultured in a 5% CO2 atmosphere in DMEM (purchased from Cellgro (Herndon, Va.)) containing 10% FCS, 1% penicillin-streptomycin, 1% sodium pyruvate, 1% non essential amino acids and 1% glutamine. THP-1 cells (human macrophages) were obtained from ATCC and were cultured under the same conditions, with RMPI 1640 containing 10% FCS, 1% penicillin-streptomycin, 1% sodium pyruvate and 1% non essential amino acids.
Dose-dependent apoptosis was measured by FITC-Annexin V/Propidium iodide kits (Miami, Fla.). Cells were plated in six-well/twelve well plates. […] Cells were washed twice with PBS and centrifuged at about 2000 rpm for about 5 minutes and resuspended in binding buffer (provided in the kit) along with FITC-Annexin V/Propidium iodide (PI) according to manufacturer's instructions. After incubating on ice (light protected) for about 15 minutes, samples were analyzed by flow cytometry. Flow cytometric analysis was performed using a flow cytometer equipped with a single 488-nm argon laser. Dead cell fragments were gated out by forward and side scatter analysis. […] Forward and side scatter were used to gate out cellular fragments.
After an overnight incubation, the levels of cell death were determined using PI staining of ethanol fixed cells. Specifically, cells were washed twice with PBS before they were treated with 70% ethanol (250 μl). Ethanol was added dropwise and then the cells were incubated on ice for 30 minutes. The cells were then washed twice with PBS and resuspended in 1 ml PBS to which PI at a final concentration of 1 mg/ml was added. The samples were then analyzed using the flow cytometer.
In FIGS. 2A and 2B, the numbers in each histogram represent the percentage of Sub Go/G1 fragmented cell populations. Ten thousand events were analyzed for each sample.

[3] = tested on: peripheral blood mononuclear cells; test: PI/Annexin V apoptosis in peripheral blood mononuclear cells; format: cell-based, human; details: PBMCs, overnight
Method: PBMCs were isolated and obtained after Ficoll-hypaque centrifugation as described in Jewett et al., 159, J. Immunol. (1997) which is hereby incorporated by reference. Specifically, human peripheral blood was obtained from normal donors in the laboratory as per guidelines of the UCLA Human Subject Protection Committee. The blood was fractionated on Ficoll-Hypaque, and the buffy layer was harvested, washed and resuspended in media.
Peripheral blood mononuclear cells were then cultured in RPMI 1640 supplemented with 10% FCS, 1% penicillin-streptomycin, 1% sodium pyruvate and 1% non-essential amino acids.
Cells were simultaneously treated in the presence and absence of NAC overnight. […] It is quite well known that apoptotic cells initially lose their size and gain in granularity when they undergo cell death. These changes are one hallmark of apoptosis.

Jurkat T cells = test: Cell death in Jurkat T cells (PI/FITC-Annexin V); format: cell-based; details: 0.082M-0.0082M HEMA and/or NAC 20 mM simultaneously; overnight
Method: After an overnight incubation the levels of cell death in Jurkat T cells were determined using dual staining with PI/FITC-Annexin V as described previously (FIG. 19B). 10,000 events were analyzed for each sample. Similar results were obtained when apoptosis was assessed by PI staining of ethanol fixed Jurkat T cells. • 2. Decreased Levels of Full Length Caspase 9 and Caspase 3 in HEMA-Treated Keratinocytes

[4] = tested on: NFkB knock down oral keratinocytes; test: Cell death in NFkB knock down oral keratinocytes (FS/PI); format: cell-based, human; details: overnight
Source text: Next, retrovirally-transduced oral keratinocytes were left untreated or treated with HEMA. […] Numbers in each quadrant represent the percentages of cells in that quadrant.
Similar treatments were next performed as described above except that the morphological assessment of oral keratinocytes before and after HEMA treatment was examined.

GAPDH mRNA = GAPDH mRNA in dental pulp stromal cells (RT-PCR); format: cell-based; details: HEMA alone or with NAC 20 mM, 4 hours
Method: The role of GAPDH in HEMA-mediated cytotoxicity was also evaluated. […] In comparison no significant decrease in β-actin and collagen-1 under the same experimental conditions could be seen.

GAPDH = GAPDH protein in dental pulp stromal cells (KDalert GAPDH assay kit); format: cell-based; details: HEMA (0.082M) alone or with NAC 20 mM, 4 hours
Method: After 4 hours of incubation the protein levels of GAPDH were determined using a KDalert GAPDH assay kit (Ambion). This assay is a fluorescent based assay which measures the conversion of NAD+ to NADH catalyzed by GAPDH.

[5] = tested on: human smooth muscle cells; test: VEGF secretion of human smooth muscle cells (ELISA); format: cell-based; details: HEMA (0.082M) alone or with NAC 20 mM, 4 hours, then overnight
[6] = tested on: HEp2 cells co-cultured with PBMCs; test: VEGF in co-cultures of HEMA/NAC treated HEp2 cells with PBMCs (multiplex cytokine array); format: cell-based, human; design: unit not given here; remark: listed apart in the source
gingival cells = test: Bleaching agent on rat palatal gingiva: gingival cell growth; format: in vivo, rats; details: bleaching agent on palatal gingiva 5 hours, without or with NAC; cells grown 21 days
Method: For gingival cells, the bleaching agent was applied in the same order of experimental groups to the palatal gingiva for 5 hours, washed and excised and minced and treated with collagenase (0.01%) for 48 hours before the single cell suspensions were prepared by washing and resuspending in DMEM. The cells were allowed to grow to confluency for 21 days before photographs were taken. […] FIG. 46 provides a graphical representation of cell survival.

[7] = 0.0164M HEMA alone (HEMA) or also treated with NAC (NAC)

C=C(C)C(=O)OCCO [HEMA, hydroxyethyl methacrylate]
VEGF ([1]; HEp2 +0.00164M HEMA, −/+NAC, Control PBMC +IL-2): 6923
VEGF ([1]; HEp2 +0.00164M HEMA, −/+NAC, Control PBMC −IL-2): 6640
VEGF ([1]; HEp2 +0.00164M HEMA, −/+NAC, No PBMC): 7139
VEGF ([1]; HEp2 +0.0164M HEMA, −/+NAC, Control PBMC +IL-2): 323
VEGF ([1]; HEp2 +0.0164M HEMA, −/+NAC, Control PBMC −IL-2): 582
VEGF ([1]; HEp2 +0.0164M HEMA, −/+NAC, No PBMC): 294
VEGF levels by ELISA, Human dental pulp stromal cells ([2]; HEMA 0.00164M, alone or with NAC and/or vitamin E): 57.26
VEGF levels by ELISA, Human dental pulp stromal cells ([2]; HEMA 0.0082M, alone or with NAC and/or vitamin E): 72.6 pg/mL
VEGF levels by ELISA, Human dental pulp stromal cells ([2]; HEMA 0.0164M, alone or with NAC (20 mM) and/or vitamin E (5 mM)): 73.79
HEMA-mediated cell death and cytotoxicity (FITC-Annexin V/PI) (RAW 264.7 cells; HEMA about 18 hours): detected at millimole to micromole concentrations
cells in the stage of late apoptosis (PI/Annexin V) ([3]; 0.0082M HEMA alone (HEMA) or also treated with NAC (NAC)): 39%
cells in the stage of late apoptosis (PI/Annexin V) [3, 7]: about 45%
apoptotic cell death (Jurkat T cells): undergo apoptotic cell death
cell death (FS, PI staining) [4]: induces significant cell death
GAPDH mRNA (GAPDH mRNA): significant inhibition of GAPDH mRNA
GAPDH protein expression (GAPDH): significant decrease in GAPDH protein expression
VEGF secretion [5]: significantly reduced VEGF secretion
VEGF ([6]; HEp2 +0.00164M HEMA, −/+NAC, Patient PBMC +IL-2): 7760
VEGF ([6]; HEp2 +0.00164M HEMA, −/+NAC, Patient PBMC −IL-2): 6550
VEGF ([6]; HEp2 +0.0164M HEMA, −/+NAC 20 mM, about 18 hours, Patient PBMC −IL-2): 1161
VEGF ([6]; HEp2 +0.0164M HEMA, −/+NAC, Patient PBMC +IL-2): 379

CC(=O)N[C@@H](CS)C(=O)O [NAC, N-acetyl-cysteine]
VEGF ([1]; HEp2 −HEMA (+NAC), Control PBMC +IL-2): 5376
VEGF ([1]; HEp2 −HEMA (+NAC), Control PBMC −IL-2): 5260
VEGF ([1]; HEp2 −HEMA (+NAC), No PBMC): 4714
VEGF levels by ELISA, Human dental pulp stromal cells ([2]; no HEMA, NAC (20 mM) and/or vitamin E (5 mM)): 1532.4
inhibition of HEMA-mediated cell death (Sub Go/G1, PI staining) (RAW 264.7 cells; NAC 20 mM pretreatment about 8 hours or simultaneous, overnight): inhibited HEMA-mediated cell death
cells in the stage of late apoptosis (PI/Annexin V) [3, 7]: about 25%
apoptotic cell death (Jurkat T cells): significantly blocked
GAPDH mRNA (GAPDH mRNA): prevented this inhibition
GAPDH protein expression (GAPDH): preventing the decrease in GAPDH protein expression
gingival cell death (gingival cells): ameliorated
VEGF secretion [5]: could be reversed
VEGF ([6]; HEp2 −HEMA (+NAC 20 mM), Patient PBMC −IL-2): 5648
VEGF ([6]; HEp2 −HEMA (+NAC), Patient PBMC +IL-2): 5805
